Measurements as given in article PMC4109680, “Identification and Preclinical Pharmacology of the γ-Secretase Modulator BMS-869780” (International Journal of Alzheimer's Disease, 2014).
“Also recorded” adds a separate entry of the source.

Tests used:
[1] = tested on: duodenum, liver, and kidney; assay: Histopathology in rat 4-day oral dosing experiment; assay type: in vivo
Procedure: Determination of IC50 values for inhibition of secreted alkaline phosphatase (SEAP) was carried out using an H4 cell line stably expressing SEAP. Cells were treated overnight with compounds in 384-well format, and SEAP accumulation in the culture media was quantified using a chemiluminescence substrate. The pregnane-X-receptor transactivation assay (PXR-TA) was based on the methods of Goodwin et al. as described previously. In the 4-day rat study with BMS-869780, tissues were fixed in 10% neutral buffered formalin, embedded in paraffin, sectioned, stained with hematoxylin and eosin, and examined by light microscopy.
As a preliminary evaluation of safety in vivo, male and female rats were given 10, 30, and 100 mg/kg BMS-869780 orally once daily for 4 days. Endpoints included brain Aβ1-42, as described above (Figures 7(d) and 7(e)), plasma PK on day 1 and day 3 (Table 4), and histopathology for duodenum, liver, and kidney.

[2] = Pharmacokinetics in male Sprague-Dawley rats; assay type: in vivo; details: plasma, Rat
Procedure: (§1) Male Sprague-Dawley (SD) rats (300–350 g) were fasted overnight, and three per group received BMS-869780 either as an intravenous (IV) infusion in PEG400 : ethanol (90 : 10 w/w) at 1 mg/kg over 5 min via the jugular vein or as nanosuspension (d50 ca. 300 nm) by oral gavage at 5 mg/kg in Povidone K-30 : sodium lauryl sulfate : water (2.5 : 0.12 : 97.38 w/w/w/w). For the IV infusion, serial blood samples were obtained before dose and at 0.17, 0.25, 0.5, 0.75, 1, 2, 4, 6, 8, and 24 hours after dose. For the PO nanosuspension, serial blood samples were obtained before dose and at 0.25, 0.5, 0.75, 1, 2, 4, 6, 8, and 24 h after dose. Blood samples, ~0.3 mL, for all studies were collected from the jugular vein into K3EDTA-containing tubes and then centrifuged at 4°C (1500–2000 ×g) to obtain plasma, which was stored at −20°C until analysis by LC/MS/MS. In male beagle dogs, the PK of BMS-869780 was evaluated in a cross-over study design with a one-week washout between treatments. Dogs were fasted overnight, and three animals (9.5 to 10.7 kg) received BMS-869780 by IV infusion at 1 mg/kg over 5 minutes in PEG400 : ethanol (90 : 10 w/w) or as nanosuspension (d50 ca. 300 nm) by oral gavage at 5 mg/kg in Povidone K-30 : sodium lauryl sulfate : water (2.5 : 0.12 : 97.38 w/w/w/w). Serial blood samples (~0.3 mL) were collected from a saphenous vein into K3EDTA-containing tubes before dose and at 0.083, 0.17, 0.25, 0.5, 0.75, 1, 2, 4, 6, 8, and 24 hours after IV dose, and 0.25, 0.5, 0.75, 1, 2, 4, 6, 8, and 24 hours after oral dose, followed by centrifugation at 4°C (1500 to 2000 ×g) to obtain plasma. Samples were stored at −20°C until analysis of BMS-869780 levels by LC-MS/MS. In male cynomolgus monkeys, the PK of BMS-869780 was evaluated in a cross-over study design with a 1-week washout between treatments. Following an overnight fast, three animals (4.5 to 8 kg) received BMS-869780 by IV infusion via a femoral vein at 1 mg/kg over 10 minutes in PEG400 : ethanol (90 : 10), or by oral gavage at 5 mg/kg in Povidone K-30 : sodium lauryl sulfate : water (2.5 : 0.12 : 97.38). Serial blood samples, ~0.3 mL, were collected from a femoral artery into K3EDTA-containing tubes before dose and at 0.083, 0.17, 0.25, 0.5, 0.75, 1, 2, 4, 6, 8, and 24 hours after IV dose, and 0.25, 0.5, 0.75, 1, 2, 4, 6, 8, and 24 hours after oral dose, followed by centrifugation at 4°C (1500 to 2000 ×g) to obtain plasma. Samples were stored at −20°C until analysis of BMS-869780 levels by LC-MS/MS. The PK parameters of BMS-869780 were obtained by noncompartmental analysis of plasma concentration versus time data (WinNonlin software, Version 5.0; Pharsight Corporation, Mountain View, CA). The peak concentration (C max) and time for C max (T max) were recorded directly from experimental observations. The area under the curve from time zero to the last sampling time (AUC^0-T) and the area under the curve from time zero to infinity (AUC^INF) were calculated using a combination of linear and log trapezoidal summations. The total plasma clearance (CLTp), steady-state volume of distribution (Vss), apparent elimination half-life (T 1/2), and mean residence time (MRT) were estimated after IV administration. The absolute oral bioavailability (F) was estimated as the ratio of dose-normalized AUC values following oral and IV doses.
(§2) Figure 9 Pharmacokinetics (PK) of BMS-869780 across species for prediction of human PK. Rats, dogs, and cynomolgus monkeys were dosed with BMS-869780 intravenously (IV ▲) at 1 mg/kg or oral nanosuspension (PO ●) at 5 mg/kg. Plasma concentrations of BMS-869780 were determined for up to 24 hours after the dose. (a) Rat. (b) Dog. (c) Cynomolgus monkey.

[3] = tested on: CYP3A4 mRNA; assay: CYP3A4 mRNA expression in primary human hepatocytes; assay type: cell-based; details: two donors, relative to rifampicin 10 μM
Procedure: Figure 10 BMS-869780 caused PXR activation in vitro and lipidosis in rat liver. (a) PXR activation in the presence of BMS-869780 was evaluated in HepG2 cell cultures using a luciferase transcriptional reporter construct (●), or by assay of CYP3A4 mRNA levels in primary human hepatocyte (PHH) cultures from two individual donors (▲ and ▼). Activation in both assays is expressed as % relative to activation in the presence of rifampicin, 10 μM, in parallel cultures. (b) Liver section from vehicle-dosed rats. (c) Liver section from rats given 4 daily doses of BMS-869780 at 100 mg/kg.

[4] = tested on: brain Aβ1-42; assay: Rat time course PK/PD, oral dose, indirect response model; assay type: in vivo; details: Rat 3 mg/kg PO solution (predicted steady state after 3 daily doses)
[5] = Pharmacokinetics in male beagle dogs; assay type: in vivo; details: plasma, Dog
Procedure: as §1, §2

SMILES: COc1cc(Nc2nc3n(n2)CCCC[C@H]3c2ccc(F)cc2)ccc1-n1cnc(Cl)c1 [BMS-869780]
- duodenum and kidney histology ([1]; 10, 30 and 100 mg/kg orally once daily for 4 days): unchanged at all dose levels
- liver histology ([1]; at all doses (10, 30, 100 mg/kg once daily for 4 days)): macro- and microvesicular vacuolar degeneration
- separation of hepatotoxicity from Aβ1-42 lowering exposure benchmarks ([1]; lipidosis after four daily doses of 10 mg/kg): no separation of hepatotoxicity
- Notch-related effect in duodenum ([1]; up to 100 mg/kg once daily for 4 days): no Notch-related effect on differentiation in the duodenum; also recorded: did not cause any histological change in duodenum
- AUC(0-t) ([2]; IV 1 mg/kg): 1.48 ± 0.121 µM·h
- MRT ([2]; IV 1 mg/kg): 1 ± 0.2 h
- clearance ([2]; IV 1 mg/kg): 24.3 ± 1.7 mL/min/kg
- half-life ([2]; IV 1 mg/kg): 2 ± 0.3 h
- Vd ([2]; IV 1 mg/kg, read-out: Vss): 1.8 ± 0.5 L/kg
- AUC(0-t) ([2]; PO suspension 5 mg/kg): 4 ± 0.964 µM·h
- Cmax ([2]; PO suspension 5 mg/kg): 674 ± 227 nM
- Tmax ([2]; PO suspension 5 mg/kg): 3.3 ± 1.2 h
- bioavailability ([2]; PO suspension 5 mg/kg): 54%
- concentrations at which CYP3A4 mRNA transcription was activated [3]: ≥ 300 nM
- Brain Aβ ABEC 24 hr Aβ1-42 [4]: 26.9%
- Plasma AUC 0–24 hr [4]: 18.6 µM·h
- AUC(0-t) ([5]; IV 1 mg/kg): 6.64 ± 2.26 µM·h
- MRT ([5]; IV 1 mg/kg): 6.6 ± 2 h
- clearance ([5]; IV 1 mg/kg): 5.7 ± 1.7 mL/min/kg
- half-life ([5]; IV 1 mg/kg): 5.2 ± 1.4 h
- Vd ([5]; IV 1 mg/kg, read-out: Vss): 2.2 ± 0.8 L/kg
- AUC(0-t) ([5]; PO suspension 5 mg/kg): 4.55 ± 2.16 µM·h
- Cmax ([5]; PO suspension 5 mg/kg): 487 ± 155 nM
- Tmax ([5]; PO suspension 5 mg/kg): 1.7 ± 0.6 h
- bioavailability ([5]; PO suspension 5 mg/kg): 13%
